Measured values from US5547972A, “Therapeutic agents useful for treating inflammatory diseases” (The Boots Company PLC, priority 1991, dated 1996).
Where a name gives a salt, the structure may show the parent alone.

Tested on: Zymosan Stimulated Macrophaqes
Assay: Test A: Inhibition of Arachidonic Acid Release from Zymosan Stimulated Macrophages
Format: cell-based, mouse (female MF1)
Conditions: Mus musculus, Macrophage, 5 h, inhibition of arachidonic acid release; six concentrations (100, 50, 20, 10, 5 and 1 μM); 5 h with zymosan; read-out: Test A IC50
Protocol: Inhibition of Arachidonic Acid Release from Zymosan Stimulated Macrophaqes
Female MF1 mice (weighing 20 to 25 g) were killed using a rising concentration of CO2. The mice were laid on their backs and the abdomens wiped with 70% alcohol. The skin was pulled back, exposing the peritoneal wall. Medium A (5 ml) (see below) was injected into the peritoneal cavity of each mouse followed by approximately 1 ml of air using a 20 ml syringe and a 21 G×40 mm needle in order to form a suspension of macrophage cells. The medium and cells were then removed using a 19 G×40 mm needle. The resulting suspension was returned to a sterile beaker kept on ice. The extracts from all the mice were pooled and this pooled cell suspension was counted using a Coulter counter and adjusted to a final cell count of 1-1.3×10^6 cells/ml prior to labelling with [^3 H]-arachidonic acid. Typically five mice provided sufficient cells for each multiwell plate.
Sufficient [^3 H]-arachidonic acid in ethanol to give a final concentration of 1.6 μCi/ml (equivalent to 40 μCi/plate) was blown to dryness under nitrogen. The arachidonic acid was then resuspended in 1 or 2 ml of the cell suspension which was then mixed with the remainder of the cell suspension in a centrifuge bottle. The labelled cell suspension was then plated out into sterile plastic 96 flat-bottomed well plates (250 μl per well) and incubated overnight at 37° C. in a moist atmosphere of 5% CO2, 95% air.
The following day, non-adherent cells were removed by washing 3 times with sterile phosphate buffered saline (PBS). The adherent peritoneal macrophages were then cultured for a further 24 hours in the presence or absence of drugs, in medium B (see below) at 37° in a 5% CO2 atmosphere in order to measure the effects of drugs on the spontaneous release of arachidonic acid in the absence of stimulus. After this incubation, supernatants were removed to give media 1 and stored in sealed multi-well plates at 4° C. prior to scintillation counting. Drugs which potentiated spontaneous release of arachidonic acid (125% of controls) were deemed to be toxic at the concentration at which this phenomenon occurred. The supernatants were replaced by fresh medium C containing fresh drug and a stimulus. Three drugs were tested at six concentrations (100, 50, 20, 10, 5 and 1 μM) in replicates of four on each plate. The other wells contained controls consisting of a positive control (e.g. dexamethasone), medium (B) only and medium C only.
Incubation was then continued for a further 5 hours, whereupon the supernatants were collected to give media 2 and the adherent cells washed with PBS. The cells were then lysed with 100 μl of 0.1% TRITON® X100 in a 0.1% solution of bovine serum albumin in 0.9% saline and mechanically disrupted to give cell lysates. These supernatants (media 2) and cell lysates (Cells) were also stored in sealed multi-well plates at 4° C. prior to scintillation counting. 200 μl aliquots of media, or 100 μl aliquots of cells were counted using 2 ml of OPTIPHASE "HIGH SAFE" (Trademark of LKB) as scintillant.
The percentage of arachidonic acid released was calculated using the mean values for each group of 4 wells in the following equation. [formula] cpm=courts per minute
The value for the arachidonic acid release in the absence of stimulus (spontaneous, cpm of media 2) from cells which had been exposed to neither stimulus nor drug was subtracted from all equivalent values (cpm media 2, stimulated with or without drug) to give the net stimulated release. The percentage inhibition of arachidonic acid release caused by a drug may then be calculated using the following equation. [formula]
Compounds of formula I were tested at six concentrations (100, 50, 20, 10, 5 and 1 μM) and IC50 values calculated. Compounds with IC50 values<100 μM are considered to be active. Advantageous compounds have an IC50 value <50 μM.
Medium A (for peritoneal lavage) […]

Row | Compound | IC50
1 | CCOC(=O)c1ccc(C(C)NCCCn2ccnc2)cc1 (stereo not drawn) [Example 20, Ethyl 4-{1-[3-(imidazol-1-yl)propylamino]ethyl}benzoate] | 70 µM
2 | FC(F)(F)c1ccc(CNCCCn2ccnc2)cc1 [Example 37, 3-(Imidazol-1-yl)-N-(4-trifluoromethylbenzyl)propylamine dihydrochloride] | 75 µM
3 | CC(c1ccc(Cl)cc1)N(C)CCCn1ccnc1 (stereo not drawn) [Example 90, N-[1-(4-chlorophenyl)ethyl]-3-(imidazol-1-yl)-N-methylpropylamine] | 62 µM
4 | CC(NCCCn1ccnc1)c1ccc(Cl)c(Cl)c1 (stereo not drawn) [Example 3, N-[1-(3,4-Dichlorophenyl)ethyl]-3-(imidazol-1-yl)propylamine] | 60 µM
5 | CC(C)(CNCc1ccc(Cl)cc1)Cn1ccnc1 [Example 61, N-(4-chlorobenzyl)-3-(imidazol-1-yl)-2,2-dimethylpropylamine] | 70 µM
6 | CCCOC(=O)c1ccc(CNCCCn2ccnc2C)cc1 [Example 94, propyl 4-[3-(2-methylimidazol-1-yl)propylaminomethyl]benzoate] | 20 µM
7 | COc1cc(Cl)ccc1C(C)NCCCn1ccnc1 (stereo not drawn) [Example 17, N-[1-(4-Chloro-2-methoxyphenyl)ethyl]-3-(imidazol-1-yl)propylamine] | 90 µM
8 | CN(CCCn1ccnc1)C(C)(C)c1ccc(Cl)cc1 [Example 96, N-[1-(4-chlorophenyl)-1-methylethyl]-3-(imidazol-1-yl)-N-methylpropylamine] | 75 µM
9 | CCc1ccc(C(C)NCCCn2ccnc2)cc1 (stereo not drawn) [Example 21, N-[1-(4-Ethylphenyl)ethyl]-3-(imidazol-1-yl)propylamine hemioxalate] | 65 µM
10 | CC(C)(NCCCn1ccnc1)c1ccc2ccccc2c1 [Example 83, N-[1-(2-Naphthyl)-1-methylethyl]-3-(imidazol-1-yl)propylamine dihydrochloride hemihydrate] | 28 µM
11 | FC(F)(F)Oc1ccc(CNCCCn2ccnc2)cc1 [Example 38, 3-(Imidazol-1-yl)-N-(4-trifluoromethoxybenzyl)propylamine dihydrochloride] | 80 µM
12 | CC(C)(NCCCCCCCCn1ccnc1)c1ccc(Cl)cc1 [Example 63, N-[1-(4-chlorophenyl)-1-methylethyl]-8-(imidazol-1-yl)octylamine] | 7 µM
13 | CC(C)(NCCCn1cnc([N+](=O)[O-])c1)c1ccc(Cl)cc1 [Example 74, N-[1-(4-Chlorophenyl)-1-methylethyl]-3-(4-nitroimidazol-1-yl)propylamine] | 70 µM
14 | Cc1cn(CCCNCc2ccc(Cl)cc2)c(C)n1 [Example 42, N-(4-chlorobenzyl)-3-(2,4-dimethylimidazol-1-yl)propylamine dihydrochloride] | 8 µM
15 | CC(NCCCn1ccnc1)c1ccc(F)cc1 (stereo not drawn) [Example 4, N-[1-(4-Fluorophenyl)ethyl]-3-(imidazol-1-yl)propylamine] | 95 µM
16 | CCC(CC)(NCCCn1cnc(COC(C)=O)c1)c1ccccc1 [Example 103, 1-[3-(α,α-diethylbenzylamino)propyl]imidazol-4-ylmethyl acetate] | 51 µM
17 | Cc1cc(C(C)NCCCn2ccnc2)ccc1Cl (stereo not drawn) [Example 12, N-[1-(4-Chloro-3-methylphenyl)ethyl]-3-(imidazol-1-yl)propylamine] | 36 µM
18 | Clc1ccc(CNCCCCn2ccnc2)cc1 [Example 46, N-(4-Chlorobenzyl)-4-(imidazol-1-yl)butylamine dihydrochloride] | 86 µM
19 | CC(C)(NCCCn1ccnc1)c1ccc(OCc2ccccc2)cc1 [Example 87, N-[1-(4-Benzyloxyphenyl)-1-methylethyl]-3-(imidazol-1-yl)propylaminedihydrochloride] | 12 µM
20 | CC(NCCCn1ccnc1)c1ccc(N(C)C)cc1 (stereo not drawn) [Example 6, N-[1-(4-Dimethylaminophenyl)ethyl]-3-(imidazol-1-yl)-propylamine] | 92 µM
21 | CCC(CC)(NCCCn1cnc(CO)c1)c1ccccc1 [Example 86, 1-[3-(1-ethyl-1-phenylpropylamino)propyl]imidazol-4-yl-methanol] | 78 µM
22 | CCOc1cc(Cl)ccc1C(C)NCCCn1ccnc1 (stereo not drawn) [Example 18, N-[1-(4-Chloro-2-ethoxyphenyl)ethyl]-3-(imidazol-1-yl)propylamine] | 50 µM
23 | CC(C)(NCCCn1cnc(CO)c1)c1ccc(Cl)cc1 [Example 79, 1-{3-[1-(4-Chlorophenyl)-1-methylethylamino]propyl}imidazol-4-yl-methanol] | 85 µM
24 | CC(NCCCn1ccnc1)c1ccc(OC(F)(F)F)cc1 (stereo not drawn) [Example 23, 3-(Imidazol-1-yl)-N-[1-(4-trifluoromethoxyphenyl)ethyl]propylamine sesquicitrate] | 22 µM
25 | Brc1ccc(CNCCCn2ccnc2)cc1 [Example 36, N-(4-Bromobenzyl)-3-(imidazol-1-yl)propylamine] | 90 µM
26 | Cc1nccn1CCCCCNCc1ccc(Cl)cc1 [Example 95, N-(4-chlorobenzyl)-5-(2-methylimidazol-1-yl)pentylamine] | 4 µM
27 | Cc1nccn1CCCN(C)Cc1ccc(Cl)cc1 [Example 97, N-(4-chlorobenzyl)-N-methyl-3-(2-methylimidazol-1-yl)propylamine] | 60 µM
28 | CC(C)(NCCCn1ccnc1)c1ccc(-c2ccccc2)cc1 [Example 81, N-[1-(4-Biphenylyl)-1-methylethyl]-3-(imidazol-1-yl)propylamine dihydrochloride] | 14 µM
29 | CC(NCCCn1ccnc1)c1cc(Cl)ccc1Cl (stereo not drawn) [Example 15, N-[1-(2,5-Dichlorophenyl)ethyl]-3-(imidazol-1-yl)propylamine] | 72 µM
30 | Cc1cn(CCCNCc2ccc(Cl)cc2)c(-c2ccccc2)n1 [Example 48, N-(4-chlorobenzyl)-3-(4-methyl-2-phenylimidazol-1-yl)propylamine] | 15 µM

Same assay, conditions: inhibition of arachidonic acid release; six concentrations (100, 50, 20, 10, 5 and 1 μM); 5 h with zymosan; citrate; read-out: Test A IC50

Row | Compound | IC50
31 | CC(C)(NCCCn1ccnc1)c1ccc(Cl)cc1 [Example 99, N-[1-(4-chlorophenyl)-1-methylethyl]-3-(imidazol-1-yl)propylamine citrate] | 14 µM

Same assay, conditions: inhibition of arachidonic acid release; six concentrations (100, 50, 20, 10, 5 and 1 μM); 5 h with zymosan; dihydrate; read-out: Test A IC50

Row | Compound | IC50
32 | CC(C)(NCCCn1ccnc1)c1ccc(Cl)cc1 [Example 100, N-[1-(4-chlorophenyl)-1-methylethyl]-3-(imidazol-1-yl)propylamine (+)tartrate dihydrate] | 20 µM

Same assay, conditions: inhibition of arachidonic acid release; six concentrations (100, 50, 20, 10, 5 and 1 μM); 5 h with zymosan; read-out: Test A IC50

Row | Compound | IC50
33 | A mixture of N-[1-(4-chlorophenyl)-1-methylethyl]-3-(4-methylimidazol-1-yl)propylamine and N-[1-(4-chlorophenyl)-1-methylethyl]-3-(5-methylimidazol-1-yl)propylamine [Example 69] | 11 µM
